In patent publication US20070117840A1, “Receptor antagonist” (priority 2004, published 2007):

What was measured:
rat-type OT7T022 = biological target: T1, rat-type OT7T022 (Rattus norvegicus, UniProt Q9EP86); test: Binding inhibiting activity using rat-type OT7T022-expressing CHO cell membrane fraction; details: iodine-labeled Y-RFRP-3 100 pM
T1 construct: expressed in transfected cells; host or cells: CHO cells (membrane fraction)
Procedure: Assessment of Binding Inhibiting Activity of Test Compound Using Rat-Type OT7T022-Expressing CHO Cell
(1) Preparation of Rat-Type OT7T022-Expressing CHO Cell Membrane Fraction
A flask in which a rat-type OT7T022-expressing CHO cell had been cultured was washed with 5 mM EDTA/PBS, cells were peeled with 5 mM EDTA/PBS, and cells were recovered by centrifugation, suspended in 25 mL of a buffer for preparing a membrane fraction (50 mM Tris-HCl, pH 7.5, 5 mM EDTA, 0.5 mM PMSF (manufactured by Wako Pure Chemical Industries, Ltd.), […] leupeptin (manufactured by Peptide Laboratory), 0.1 μg/mL pepstatin A (manufactured by Peptide Laboratory), 4 μg/mL E-64 (manufactured by Peptide Laboratory)), and homogenized on an ice using Polytron (12,000 rpm, 15 seconds×3 times). This was centrifuged in a high speed cooling centrifuge at 4° C. and 1,000 g for 10 minutes, and the supernatant was recovered. 25 mL of a buffer for preparing a membrane fraction was added to precipitates, and the supernatant was recovered by the same procedure. […] The pellet was suspended in a small amount of a buffer for preparing a membrane fraction, this was suspended using a Teflon (registered trade mark) homogenizer, a protein amount was measured using a part, and the remaining was dispensed, and stored at −80° C. […]

human-type OT7T022 [1] = biological target: T2, human-type OT7T022 (Homo sapiens, UniProt Q9GZQ6); test: Antagonist activity in cAMP production inhibiting test system using human-type OT7T022-expressing CHO cell; assay type: cell-based; details: intracellular cAMP, agonist human-type RFRP-3-8 20 nM, forskolin 2 μM
T2 construct: expressed in transfected cells; host or cells: CHO cells (membrane fraction)
Procedure: Test of Antagonist Activity of Compound in cAMP Production Inhibiting Test System Using Human-Type OT7T022-Expressing CHO Cell
Antagonist activity of a test compound was measured in an intracellular cAMP production inhibiting test system of a CHO cell expressing human-type OT7T022. In the cAMP production inhibiting test, as an assay buffer, a Hanks' balanced salt solution (Gibco) to which 20 mM HEPES pH 7.4, 0.1% bovine serum albumin, and 0.2 mM 3-isobutyl-1-methylxanthine (Sigma) had been added, was used. A sample compound was adjusted with an assay buffer so that the final concentration became 10^−5M, 10^−6M, 10^−7M, 10^−8M, or 10^−10M. […] A human-type OT7T022-expressing CHO cell was passaged on a 96-well plate at 4×10^4/well, and cultured at 37° C., 5% CO2 and 95% air for one day. The plate which had been cultured for one day was washed with an assay buffer (150 μl) two times and, after 30 minutes, this was cultured for 30 minutes at 37° C. and 100% air. After washed with an assay buffer (150 μl) two times, 50 μl of a sample compound solution and, then, 50 μl of an agonist+forskolin solution were added, the mixture was stirred well and, after 30 minutes, this was cultured for 30 minutes at 37° C. and 100% air. An intracellular cAMP amount was measured according to a protocol of the present kit using cAMP-Screen™ system (ABI). […]

human-type OT7T022 [2] = biological target: T2, human-type OT7T022; test: Binding inhibiting activity using human-type OT7T022-expressing CHO cell (125I-Y-RFRP-3); details: human-type OT7T022-expressing CHO cell membrane fraction, 125I-labeled Y-RFRP-3 100 pM; read-out: IC50 value (binding inhibiting rate)
Procedure: Assessment of Binding Inhibiting Activity of Test Compound Using Human-Type OT7T022-Expressing CHO Cell
(1) Preparation of Iodine-Labeled Entity of Human-Type RFRP-3 (Y-RFRP-3)
A part thereof was 1/100 diluted, radioactivity was measured with a γ-counter, and the remaining authentic product was distributed, which was stored at −30° C.
(2) Assessment of Binding Inhibiting Activity
For measuring non-specific binding, non-labeled Y-RFRP-3 was further added to […]. Then, a membrane fraction was transferred to a unifilter GF/C (Perkin Elmer) by filtering the reaction solution using a cell harvester (Perkin Elmer), and this was washed with a cooled 50 mM Tris buffer (pH 7.5) five times. The filter was dried, Microsinti (Packard) was added to the filter, and radioactivity was measured with Topcount (Packard).
A binding inhibiting rate (IC50 value) of a test compound is shown in [Table 1].

[3] = Blood glucose concentration after intravenous administration of RFRP-1 to rat; assay type: in vivo, Wistar male rat; details: 10 nmol/kg, 5 minutes and 15 minutes after administration, compared with physiological saline group
Excerpt: (§1) In FIG. 1, (-∘-) represents a blood glucose concentration of a physiological saline administration group, (-▴-) represents a blood glucose concentration of an RFRP-1 1 nmol/kg administration group, and (-▪-) represents a blood concentration of an RFRP-1 10 nmol/kg administration group.
Blood Glucose Concentration Increasing Activity of RFRP
As RFRP, human RFRP-1 (37 amino acids) consisting of an amino acid sequence of 56th (Ser) to 92nd (Phe) of an amino acid sequence represented by SEQ ID No.: 3. Hereinafter, this peptide is abbreviated as RFRP-1.
In order to study influence of peripheral administration of RFRP-1 on a blood glucose concentration, operation for collecting blood under free moving was performed. A mature Wistar male rat (weight 310 to 350 g at operation) was anesthetized with 50 mg/kg of pentobarbital by intraperitoneal administration. The rat was fixed on an anatomic pad in a supine position, and a left jugular vein was exposed. […]
Overnight after operation, 300 μl of blood was collected using a tuberculin injection syringe having a dose of 1 ml and a 25 gauge injection needle (both Telmo) before administration of RFRP-1. […] A blood glucose concentration was measured using Fuji Drichem 3500 (FUJIFILM).

[4] = Blood glucagon and insulin concentration after intravenous administration of RFRP-1 to rat; assay type: in vivo, Wistar male rat
Excerpt: In FIG. 2, (-∘-) represents a blood glucagon concentration of a physiological saline administration group, (-▴-) represents a blood glucagon concentration of an RFRP-1 1 nmol/kg administration group, and (-▪-) represents a blood glucagon concentration of an RFRP-1 10 nmol/kg administration group.
as §1, with “FIG. 3,” for “FIG. 1,”, “blood insulin” for “blood glucose”, “blood insulin” for “blood”, “group. A value indicates mean±[…] (mean±SE) (n=4).” for “group.”
Pancreatic Glucagon Secretion Promoting Activity of RFRP
In order to study mechanism of blood glucose concentration increasing activity of RFRP-1, influence of RFRP-1 on a blood concentration of glucagon and insulin which are known as a hormone imparting a variation to a blood glucose concentration was studied. A mature Wistar male rat (weight 310 to 350 g at operation) was operated for collecting blood under free moving. Overnight after operation, 300 μl of a blood was collected using a tuberculin injection syringe having a dose of 1 ml and a 25 gauge injection needle (both Telmo) before administration of RFRP-1. […]

T2 sequence (Q9GZQ6 whole entry): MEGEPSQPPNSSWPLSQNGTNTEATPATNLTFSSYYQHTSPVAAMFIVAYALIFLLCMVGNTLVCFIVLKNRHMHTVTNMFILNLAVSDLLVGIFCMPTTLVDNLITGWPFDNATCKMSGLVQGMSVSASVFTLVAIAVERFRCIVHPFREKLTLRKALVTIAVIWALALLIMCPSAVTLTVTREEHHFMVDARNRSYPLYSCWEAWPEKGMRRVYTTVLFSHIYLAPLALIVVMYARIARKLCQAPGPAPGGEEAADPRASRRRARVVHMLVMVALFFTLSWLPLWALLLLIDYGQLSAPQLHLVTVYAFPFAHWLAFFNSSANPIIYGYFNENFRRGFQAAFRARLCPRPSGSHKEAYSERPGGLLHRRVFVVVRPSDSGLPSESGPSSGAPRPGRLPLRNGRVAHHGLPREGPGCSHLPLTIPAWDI
T1 sequence (Q9EP86 whole entry): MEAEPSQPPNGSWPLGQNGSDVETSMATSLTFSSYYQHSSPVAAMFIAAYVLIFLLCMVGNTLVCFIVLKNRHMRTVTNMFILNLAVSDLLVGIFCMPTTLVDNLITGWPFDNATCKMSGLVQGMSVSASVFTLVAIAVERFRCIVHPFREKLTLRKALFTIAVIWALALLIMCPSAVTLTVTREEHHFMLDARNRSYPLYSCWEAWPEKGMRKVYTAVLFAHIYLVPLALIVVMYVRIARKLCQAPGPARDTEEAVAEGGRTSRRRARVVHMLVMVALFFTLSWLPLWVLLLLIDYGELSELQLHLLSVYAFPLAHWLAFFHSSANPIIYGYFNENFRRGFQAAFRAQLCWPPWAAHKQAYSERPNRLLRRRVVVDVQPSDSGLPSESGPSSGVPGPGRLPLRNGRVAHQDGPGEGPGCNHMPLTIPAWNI

Molecule	IC50 (rat-type OT7T022) [µM]	IC50 (human-type OT7T022 [1]) [µM]	IC50 (human-type OT7T022 [2]) [µM]	blood glucose concentration [3]	blood insulin concentration [4]
CC(C)(C)Cn1c(C(=O)OC(C)(C)C)c(O)c2ccc(F)cc2c1=O [Example 1, tert-Butyl 7-fluoro-4-hydroxy-2-neopentyl-1-oxo-1,2-dihydro-3-isoquinolinecarboxylate]	< 1	< 5	< 1	–	–
CC(C)(C)Cn1c(C(=O)OC(C)(C)C)c(O)c2cc(Cl)c(Cl)cc2c1=O [Example 3, tert-Butyl 6,7-dichloro-4-hydroxy-2-neopentyl-1-oxo-1,2-dihydro-3-isoquinolinecarboxylate]	< 1	< 5	< 1	–	–
CCCCOc1c(C(=O)OC(C)(C)C)n(CC(C)(C)C)c(=O)c2ccc(F)cc12 [Reference Example 12, tert-Butyl 4-butoxy-6-fluoro-2-neopentyl-1-oxo-1,2-dihydro-3-isoquinolinecarboxylate]	–	–	< 1	–	–
RFRP-1: human RFRP-1 (37 amino acids) consisting of 56th (Ser) to 92nd (Phe) of the amino acid sequence of SEQ ID No.: 3 (SLNFEELKDWGPKNVIKMSTPAVNKMPHSFANLPLRF; Human)	–	–	–	significant (p<0.05, n=4) activity of increasing a blood glucose concentration	not recognized
